# Data: PMC12336229, “Peptide-mimetics derived from leucyl-tRNA synthetase are potential agents for the therapy of mt-tRNA related diseases” (Frontiers in Pharmacology, 2025)
# Square brackets hold non-standard residues; d marks the D form. Peptide text beside a SMILES is read from it.
# Legend:
# [1] = Plasma stability (UPLC-MS); assay type: in vitro ADME, human; details: human EDTA plasma from four healthy volunteers, 37°C, gentle shaking, UPLC-MS (SIR); for remaining at 72 h, 0.2 mM: peak area vs time 0, read-out: Amount of detectable compound after incubation with human plasma
# Procedure: To assess whether the β32_33 peptide, PMT, PMT-8a and PMT-8b peptide-mimetics are stable in blood, we set up a chromatographic assay able to evaluate compound concentration after incubation in human plasma.
# Four different samples from healthy volunteers were used. Blood was drawn by venepuncture in vacutainer containing EDTA as an anticoagulant. Plasma was separated by centrifugation and immediately used for the experiments. Each compound was dissolved in 500 μL plasma at a final concentration of 0.2 mM and split into two aliquots, one of which was immediately analysed to assess the basal compound level (T0); the other was incubated at 37°C under gentle shaking, and the amount of each compound was measured at different time points (i.e., 1.5, 3, 6 and 72 h).
# To perform chromatographic analyses, the samples were treated with 3 volumes of acetonitrile containing 1% formic acid and then extracted by using the Ostro™ pass-through sample preparation system to remove proteins and phospholipids. Samples were dried under vacuum, resuspended in 100 μL of 0.1% formic acid containing 5% acetonitrile, and then injected directly onto the chromatographic column.
# Chromatographic analyses were performed on a Water Acquity H-Class UPLC system (Waters, Milford, MA, United States), including a quaternary solvent manager (QSM), a sample manager with a flow-through needle system (FTN), a photodiode array detector (PDA) and a single-quadruple mass detector with electrospray ionization source (ACQUITY QDa). Analyses were performed on a reverse phase C18 column (75 mm × 3.2 mm i. d., 2.5 μm particle size). The mobile phase was solvent A, 0.1% formic acid in water, and solvent B, 0.1% formic acid in acetonitrile. The flow rate was 0.5 mL/min, the column temperature was set at 25°C and the elution was performed by linearly increasing the concentration of solvent B up to 70% in 7 min. Mass spectrometric detection was performed in the positive electrospray ionization mode, using nitrogen as the nebulizer gas. Analyses were performed in the Total Ion Current (TIC) mode with a mass range of 100–1200 m/z. The capillary voltage was 0.8 kV, cone voltage 8 V, ion source temperature 120°C and probe temperature 600°C. Quantification was performed by Selected Ion Recording (SIR): at m/z = 917.88, corresponding to the [M+2H]^2+ ion obtained from either β32_33 peptide or PMT; at m/z = 961.42, corresponding to the [M + H] ^+ obtained from PMT-8a; and at m/z = 869.48, corresponding to the [M + H]^+ ion obtained from PMT-8b.
# [2] = healthy animals; reached immediately, stable up to 24 h after injection; ref Peng et al., 2018; cited from earlier work
# Description: PMT radiolabelling with ^64Cu allowed us to follow the in vivo distribution of the peptide in the body districts of healthy animals over time.
# [3] = test system: mutant cybrids; experiment: Confocal fluorescence microscopy, co-localization with mitochondria (Mitotracker Red); assay type: cell-based, human; details: Cy5 constructs 0.25 µM in glucose medium, imaged after 24 h, Mitotracker Red; mean ± SEM of at least five images
# Procedure: Previously established osteosarcoma-derived (143B.TK-) cybrid cell lines from patients, which bear either the m.3243A>G mutation in mt-tRNA^Leu(UUR) or the m.8344A>G mutation in mt-tRNA^Lys and controls ([Perli et al., 2014]; [Perli et al., 2016]; [Perli et al., 2020]) were used.
# Constructs made of compounds listed in Table 1, comprising D-peptides linked to the Cy5 fluorophore via maleimide cross-linker, were administered to sub-confluent cybrid cell cultures at 0.25 µM in glucose medium. About 24 h after treatment with each construct, cells were incubated with 200 nM Mitotracker Red FM (LifeTechnologies Italia, Monza, Italy) for 30 min at 37°C.
# Subsequently, cells were visualized by confocal microscopy. Images of 800 × 800 px (at 88 nm/px) were acquired at the Olympus iX83 FluoView1200 laser scanning confocal microscope using a 60 × NA1,35 oil objective (Olympus Italia SRL Milano, Italy), zoom 3×, 559 nm, and 635 nm lasers and filter setting for Mitotracker Red and Cy5. The fluorescence images were analysed with the ImageJ software ([Rasband, 2018]) to determine the Pearson’s correlation coefficient.
# For a subset of experiments, we evaluated the mt localization of constructs up to 72 h after treatment. PMT and PMT fragments were administered to sub-confluent cybrids at a concentration of 0.25 µM in the glucose medium. At 24-, 48- and 72-h after treatment, cells were incubated with Mitotracker Red and visualized by confocal microscopy. After each confocal imaging section, a fresh glucose medium was added to the cells, which were maintained under standard conditions (a humidified atmosphere of 95% air and 5% CO2 at 37°C).
smiles,measurement,setting,value
CC(C)C[C@@H](NC(=O)[C@@H](Cc1ccccc1)NC(=O)[C@@H](CO)NC(=O)[C@@H](CCCCN)NC(=O)[C@H](N)CCCCN)C(=O)N[C@H](CO)C(=O)N1CCC[C@@H]1C(=O)N[C@H](CCCNC(=N)N)C(N)=O [PMT-8a] (H-[dK][dK][dS][dF][dL][dS][dP][dR]-NH2),"remaining at 72 h, 0.2 mM",[1]; 72 h,> 90%
CC[C@@H](C)[C@@H](NC(=O)[C@@H](CC(C)C)NC(=O)[C@@H](C)NC(=O)[C@H](NC(=O)[C@@H](CCCNC(=N)N)NC(=O)[C@H]1CCCN1C(=O)[C@@H](CO)NC(=O)[C@H](N)CC(C)C)[C@H](C)O)C(N)=O [PMT-8b] (H-[dL][dS][dP][dR][dT][dA][dL][dI]-NH2),"remaining at 72 h, 0.2 mM",[1]; 72 h,> 85%
[64Cu] [free ^64Cu],Radioactivity concentration in different cortical regions,[2],0.4–0.6 %ID/mL
CC[C@H](C)[C@H](NC(=O)[C@H](CC(C)C)NC(=O)[C@H](C)NC(=O)[C@@H](NC(=O)[C@H](CCCNC(=N)N)NC(=O)[C@@H]1CCCN1C(=O)[C@H](CO)NC(=O)[C@H](CC(C)C)NC(=O)[C@H](Cc1ccccc1)NC(=O)[C@H](CO)NC(=O)[C@H](CCCCN)NC(=O)[C@@H](N)CCCCN)[C@@H](C)O)C(=O)N[C@@H](CC(N)=O)C(=O)N[C@@H](Cc1ccccc1)C(=O)N[C@@H](CC(C)C)C(=O)N[C@H](C(N)=O)C(C)C [β32_33 peptide],"Pearson's correlation coefficient (PCC), mt localization",[3],0.78 ± 0.06
same,"metabolised at 1.5 h, 0.2 mM","[1]; 1.5 h, peak area vs time 0, read-out: Decrease of amount of compound after incubation with human plasma",90%
same,Amount of detectable compound after incubation with human plasma,"[1]; 72 h, 0.2 mM, peak area vs time 0",almost undetectable
